Results taken from patent publication US20030144148A1, “Method for plant-protection treatment by leaf absorption, using a combination between an active ingredient and a modified oil and novel combination for using said method” (SOCIETE D'EXPLOITATION DE PRODUITS POUR LES INDUSTRIES …, priority 1998, published 2003).

Key:
[1] = system: barley (Hordeum vulgare) leaves; experiment: Leaf penetration of 2,4-D, alone or in combination with modified oils; type: in vivo; settings: percentage of 2,4-D penetrated into barley leaf
Description: (§1) Ten drops are applied to the adaxial surface of the first leaf. After 0, 4, 6, 24 or 72 hours, the product which has not penetrated is washed with 0.5 ml of acetone and the radioactivity measured by liquid scintillation. The radioactivity present in the treated leaf in the rest of the plant is determined in the carbon dioxide obtained after burning the tissue.
The penetration into barley (Hordeum vulgare) leaves, of 2,4-D or (2,4-dichlorophenoxy) acetic acid, which is a herbicide with a highly dissociated carboxylic acid function, alone or in combination with modified oils, was compared according to the procedure described in the preceding paragraph.

[2] = system: barley (Hordeum vulgare) leaves; experiment: Leaf penetration of carbon-14 labeled phenmedipham, alone or in combination with modified oils; type: in vivo; parameters: dose or concentration left out as unconfirmed; settings: percentage of phenmedipham penetrated into barley leaf, 72 hours after application in acetone
Description: as §1

Row | Compound | LEAF PENETRATION AT: 24 HOURS ([1]; 24 hours after application) | LEAF PENETRATION AT: 72 HOURS ([1]; 72 hours after application) | LEAF PENETRATION AT: 72 HOURS [2]
1 | O=C(O)COc1ccc(Cl)cc1Cl [2,4-D ALONE, (2,4-dichlorophenoxy) acetic acid] | 10% | 15% | 
2 | COC(=O)Nc1cccc(OC(=O)Nc2cccc(C)c2)c1 [PH[…], 3-[(methoxycarbonyl)amino] phenyl (3-methylphenyl)-carbamate] |  |  | <10%
